# Assay results from patent US6576622B1, “Drug combination for the treatment of viral diseases” (University of Medicine & Dentistry of New Jersey, priority 1995, dated 2003).
# Tests used:
# HIV-1 IIIB = HIV-1 IIIB infection of Jurkat JE6.1 cell populations, AZT IC50 with FUdR (RT activity); assay type: cell-based; settings: for IC50: Human immunodeficiency virus 1, IIIB, Jurkat, 144 h, concentration of AZT for 50% inhibition of RT activity at day 6, F = μM FUdR
# Description: HIV-1 production in infected, cultures was determined by a ^32P-based assay as described (34). RT activity was determined by […] of ^32P bound to the DE81 paper by using a Molecular Dynamics phosphorimager. The results are reported as pixel units per microliter of the reaction mixture.
# In these experiments, three populations of cells were studied.
# R116 cell line = assay: MTT cytotoxicity assay in R116 cells; assay type: cell-based; settings: persistently resistant clone R116, three days
# Description: Three days later, drug cytotoxicity was quantitated with a standard MTT assay in which the uptake and metabolism of 3-[4,5-dimethylthiazol-2-yl]2,5-dephenyltetrazolium bromide (MTT) by cells was measured (14). The amount of formazan produced in 2 hours was determined by dissolving the product in 100% DMSO and then measuring the absorbance at 570 nm.
# HeLa-T4 is the parental cell line.
# Cells sensitive, parental HT4 (open circle), S1 (solid square), Spool (solid circle) and refractory, R116 (open square) were grown in the presence of various concentrations of FUdR. Three days latter, cell viability was determined by the MTT reduction method.
# MLV-neo = MLV-neo colony formation in the presence of antiviral agents; assay type: cell-based, Moloney Leukemia virus; settings: Hela-T4, AZT 10 uM, DDI 50 uM, DDC 10 uM, D4T 50 uM, control 9050
# Description: Production of recombinant HIV-gpt has been described elsewhere (26). The amphotropic cell line PA317 was transfected with the recombinant murine retrovirus pLXSN (36) and was used as the source of the recombinant MLV-neo virus. Stock preparations of HIV-1IIIB were harvested from H9 cells by the “shake off method” (13). Stock virus infectivity was determined by end-point dilution in MT-2 cells (32). Virus induced cytopathic effect was scored 7 days post-infection and the TCID50 was calculated with the Reed and Muench equation (33).
# To confirm this high rate of infection in the absence of genetic drug resistance, we used several other recombinant viruses and host cells. […] A high rate of infection of Jurkat cells in the presence of d4T has also been seen.
# Table 5. HIV-gpt produced in COS cells by transfection with plasmids (plasmid derived) is compared with HIV-gpt produced by, rescue from H9/HIV-gpt cell line after infection with HIV-IIIB and cells infected with MLV-neo.
# (§1) Table 6. Colony formation and persistent resistance after Hela-T4 cell infection with MLV-neo virus in the presence and absence of various antiviral agents.
# HIV-1IIIB [1] = assay: HIV-1IIIB infection of S1 and R116 cells with AZT and FUdR (RT activity); assay type: cell-based; settings: 0.1 μM AZT
# Description: Infected cells were isolated in gpt selective media and expanded into cell lines. […] Cell line S1 is a control cell line.
# Cell free supernatants were assayed for RT activity every two days. Results are the mean of triplicate cultures. Standard deviations were <15%.
# [2] = system: recombinant HIV, recombinant MLV, or replication-competent HIV; assay type: cell-based
# From the text: The presence of a selectable marker gene in the recombinant HIV allowed the isolation of cells infected by the recombinant viruses in the presence of d4T. These cells were characterized by infection with both additional recombinant viruses and by replication-competent viruses.
# as §1
# [3] = HPLC analysis of phosphorylated AZT metabolites in clones incubated with 3H-AZT; assay type: in vitro ADME; settings: 3H-AZT for 4 hours, HPLC
# Description: Cell lines were incubated with ^3H-thymidine or ^3H-AZT for 4 hours. Dried methanol extracts of the clones were redissolved in 60 μof distilled water and centrifuged to remove undissolved material. Twenty microliters of the sample was injected and separated on a 10×100 mm Rainin Hydropore anion exchange column. The nucleosides were eluted from the column with a linear gradient of potassium phosphate (5 mM to 1 M, pH4.0) at a flow rate of 1 ml/min. The samples were collected (0.5 ml), mixed with 5 ml Packard scintillation fluid, and quantitated using a liquid scintillation counter. Phosphorylated derivatives of thymidine and AZT were identified with authentic standards.
# Pool sizes were determined by incubation of cells with ^3H-AZT for 4 hours followed by cellular extraction and HPLC. The numbers are expressed as pmoles/10^6 cells. The numbers in parentheses represent the percentage of total radioactive species in that pool.
# HIV-LacZ = assay type: cell-based
# HIV-gpt = HIV-gpt colony formation after infection of HeLa-T4 cells in the presence of antiretroviral agents; assay type: cell-based; settings: for Number of colonies +AZT: colonies by day 10
# HIV-1IIIB [4] = settings: same AZT concentration as for the persistently resistant clone
smiles,measurement,setting,value
"Cc1cn([C@H]2C[C@H](N=[N+]=[N-])[C@@H](CO)O2)c(=O)[nH]c1=O [AZT, 3′-Azido-3′-deoxythymidine]",IC50,HIV-1 IIIB; JE6.1AZTR cells (refractory to AZT),0.6 µM
same,IC50,HIV-1 IIIB; JE6.1Con cells (control),0.2 µM
same,IC50,HIV-1 IIIB; JE6.1 cells,0.3 µM
same,increase AZT IC50,HIV-1 IIIB; JE6.1AZTR entire population,2 fold
same,cytotoxic concentration that killed 50%,R116 cell line,greater than 1 mM
same,No. of colonies,MLV-neo,12
same,HIV replication in the presence of drug,"HIV-1IIIB [1]; R116 cell line refractory to AZT, FIG. 7B",significant HIV replication
same,antiviral efficacy,"HIV-1IIIB [1]; control S1 cell line, multiplicity of infection of 1, FIG. 7A",potent antiviral efficacy
same,subset of cells persistently refractory to d4T that were also refractory to the antiviral effects of AZT,[2],approximately 20%
same,Frequency,"[2]; frequency of persistently resistant colonies, Hela-T4, MLV-neo",2.2 × 10^−4
same,concentration in cells,[3]; R116 (“persistently resistant”) cell line,0.0155 pmoles/10^6 cells
same,concentration in cells,[3]; S1 (sensitive) cell line,0.0206 pmoles/10^6 cells
same,inhibition of HIV-LacZ infection,"HIV-LacZ; 10 μM AZT, nine of twelve cell lines, like wild type HeLa-T4 cells",complete inhibition of infection
same,Frequency,"HIV-LacZ; frequency of persistently resistant colonies, HeLa-T4, plasmid derived HIV-gpt",3.4 × 10^−4
same,Number of colonies,"HIV-gpt; HeLa-T4, plasmid derived HIV-gpt (COS cells), AZT 10 μM, DDI 50 μM, D4T 50 μM, no drug control 8800",12
same,Frequency of colony formation in the presence of AZT,"HIV-gpt; HeLa-T4 cells, 10 μM AZT, HIV-gpt by rescue with HIV-1",5.0 × 10^−4
same,Number of colonies +AZT,"HIV-gpt; HeLa-T4 cells, 10 μM AZT, HIV-gpt by rescue with HIV-1, −AZT 1.8 × 10^4",9
same,Frequency of colony formation in the presence of AZT,"HIV-gpt; HeLa-T4 cells, 10 μM AZT, plasmid-derived (COS cells) HIV-gpt",5.2 × 10^−4
same,Number of colonies +AZT,"HIV-gpt; HeLa-T4 cells, 10 μM AZT, plasmid-derived (COS cells) HIV-gpt, −AZT 3.1 × 10^4",16
same,prevalence of colony formation after infection in the presence of AZT,"HIV-gpt; HeLa-T4 cells, 10 μM AZT, similar with the two preparations of HIV-gpt",~5×10^−4
same,inhibition of infection of control cells by replication-competent HIV,HIV-1IIIB [4],virtually complete inhibition
